Our source for the IC50 values is patent US11530244B2, “Cyclic polypeptides for PCSK9 inhibition” (priority 2018, dated 2022).

pIC50: −log10 of the molar value. Starred links: 1 amine or outer side, 2 acyl side, 3 side chain; linkers in the order of their positions; H or OH if unused. Positions of bridges follow the written chain, without caps; N, C: chain ends. Non-standard residues stand in square brackets, D forms with d. Residues, ends and D or L forms follow the SMILES beside them. Phe(4-COOH) = N[C@@H](Cc1ccc(C(=O)O)cc1)C(=O)O; Trp(5-F) = N[C@@H](Cc1c[nH]c2ccc(F)cc12)C(=O)O; Trp(6-F) = N[C@@H](Cc1c[nH]c2cc(F)ccc12)C(=O)O; Pyridine(3,5-bisCH2) = c1ncc(C[*:2])cc1C[*:1]; Pro(trans-4-F) = O=C(O)[C@@H]1C[C@@H](F)CN1; Asp(3,3-Me2) = CC(C)(C(=O)O)[C@H](N)C(=O)O; Pro(cis-4-F) = O=C(O)[C@@H]1C[C@H](F)CN1; TBMB = c1c(C[*:1])cc(C[*:3])cc1C[*:2]; mXylylene = c1cc(C[*:1])cc(C[*:2])c1; X15 = Brc1cc(C[*:1])cc(C[*:2])c1; X35 = COc1cc(C[*:1])cc(C[*:2])c1; X22 = Oc1cc(C[*:1])cc(C[*:2])c1; aThr = C[C@H](O)[C@H](N)C(=O)O; αMeP = C[C@@]1(C(=O)O)CCCN1; Ahx = NCCCCCC(=O)O; Mpa = O=C(O)CCS

The target of test [1] is human PCSK9 / human LDLR EGFa domain interaction (Homo sapiens (Human), UniProt Q8NBP7). Kind of test: TR-FRET assay of inhibition of the PCSK9-LDLR protein-protein interaction. It counts as binding. The note with it: TR-FRET, 20 nM human PCSK9, 20 nM human LDLR EGFa domain, 2 hours room temperature; read-out: IC50. An outline of the steps: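 Compounds in dose-response are mixed with 20 nM human PCSK9 (avitag-biotinylated) and 20 nM his-tagged LDLR EGFa domain, plus 5 nM each streptavidin-Ulight and Eu-anti-6×His. After 2 h at room temperature in HEPES/NaCl/CaCl2 buffer with BSA and P20, TR-FRET is read and IC50 fitted (4-parameter).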
Sequence of human PCSK9 / human LDLR EGFa domain interaction (Q8NBP7 153-692): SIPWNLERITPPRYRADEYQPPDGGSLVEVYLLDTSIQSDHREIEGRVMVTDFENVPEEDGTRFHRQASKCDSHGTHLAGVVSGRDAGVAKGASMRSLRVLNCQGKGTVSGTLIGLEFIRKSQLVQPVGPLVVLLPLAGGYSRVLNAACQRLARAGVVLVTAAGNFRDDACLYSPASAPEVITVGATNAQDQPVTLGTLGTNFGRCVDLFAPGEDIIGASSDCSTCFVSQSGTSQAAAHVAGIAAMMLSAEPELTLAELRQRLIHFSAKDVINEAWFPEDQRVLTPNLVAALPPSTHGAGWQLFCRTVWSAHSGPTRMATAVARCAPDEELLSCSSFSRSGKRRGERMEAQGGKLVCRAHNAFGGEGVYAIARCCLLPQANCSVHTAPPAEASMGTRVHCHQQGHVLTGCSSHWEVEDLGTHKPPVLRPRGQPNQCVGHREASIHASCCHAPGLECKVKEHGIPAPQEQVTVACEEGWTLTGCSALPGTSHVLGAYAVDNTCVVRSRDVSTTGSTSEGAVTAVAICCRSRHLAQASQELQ
Sequence of human PCSK9 / human LDLR EGFa domain interaction (Q8NBP7 31-152 partner): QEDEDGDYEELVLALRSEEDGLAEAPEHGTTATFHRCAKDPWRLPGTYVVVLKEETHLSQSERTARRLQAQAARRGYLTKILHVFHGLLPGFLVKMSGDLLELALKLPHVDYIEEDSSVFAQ

For another test, the target named is PCSK9 (Homo sapiens (Human), UniProt Q8NBP7). Kind of test: PCSK9 Alexa FRET Standard assay (displacement of AlexaFluor647 tagged cyclic peptide Reagent A). The note with it: PCSK9 Alexa FRET Standard assay, 0.5 nM PCSK9, 20 nM AF cyclic peptide Reagent A; read-out: IC50. The class given is binding. An outline of the steps: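 TR-FRET displacement: 0.5 nM biotinylated PCSK9 with 1.25 nM Strep-Eu and 20 nM AlexaFluor-tagged cyclic peptide (final) in 50 mM HEPES pH 7.4, 0.15 M NaCl, 5 mM CaCl2, 0.01% BSA, 0.01% P20, ≥2 h at room temperature. IC50 from sigmoidal fit, converted to Ki via peptide KD; falling Eu counts flagged false positives.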
Sequence of PCSK9 (Q8NBP7 153-692): as the sequence (Q8NBP7 153-692) above

Regarding `C[C@H]1NC(=O)[C@H](C(C)(C)C(=O)O)NC(=O)[C@H](Cc2c[nH]c3ccc(F)cc23)NC(=O)[C@H](Cc2c[nH]c3ccc(F)cc23)NC(=O)CNC(=O)[C@H](CCCCN)NC(=O)CCSCc2cccc(c2)CSC[C@@H](C(N)=O)NC(=O)[C@]2(C)CCCN2C(=O)[C@H](Cc2ccc(O)cc2)NC1=O` [Compound 055] ([Mpa]KG[Trp(5-F)][Trp(5-F)][Asp(3,3-Me2)][dA]Y[αMeP]C-NH2; linker 1-10 via mXylylene), the pIC50 (in general, −log10 of the IC50, conventionally taken in molar units) is 4.92 to 6.00 in test [1] and 4.30 to 4.68 on PCSK9.
With `COc1ccc(C[C@@H]2NC(=O)[C@H]([C@H](C)O)NC(=O)[C@@H]3C[C@H](F)CN3C(=O)[C@H](Cc3c[nH]c4cc(F)ccc34)NC(=O)[C@H](Cc3c[nH]c4ccc(F)cc34)NC(=O)[C@@H](C)NC(=O)CCCCCNC(=O)c3ccc(cc3)C[C@@H](C(N)=O)NC(=O)[C@]3(C)CCCN3C2=O)cc1` [Compound 057] ([Ahx][dA][Trp(5-F)][Trp(6-F)][Pro(cis-4-F)][aThr]Y(Me)[αMeP][Phe(4-COOH)]-NH2; lactam N-9), the pIC50 is 4.92 to 6.00 in test [1] and 4.30 to 4.68 at PCSK9.
For `COc1ccc(C[C@@H]2NC(=O)[C@H]([C@@H](C)O)NC(=O)[C@@H]3CCCN3C(=O)[C@H](Cc3c[nH]c4ccc(F)cc34)NC(=O)[C@H](Cc3c[nH]c4ccc(F)cc34)NC(=O)[C@@H](C)NC(=O)[C@H](CCCCN)NC(=O)CCSCc3cncc(c3)CSC[C@@H](C(N)=O)NC(=O)[C@]3(C)CCCN3C2=O)cc1` [Compound 058] ([Mpa]K[dA][Trp(5-F)][Trp(5-F)]PTY(Me)[αMeP]C-NH2; linker 1-10 via Pyridine(3,5-bisCH2)), the figures for the pIC50 (in test [1]; on PCSK9) were 7.00 to 10.00 and 7.00 to 9.96, respectively.
`CO[C@H](C)[C@@H]1NC(=O)[C@@H]2C[C@@H](F)CN2C(=O)[C@H](Cc2c[nH]c3ccc(F)cc23)NC(=O)[C@H](Cc2c[nH]c3ccc(F)cc23)NC(=O)CNC(=O)[C@H](CCCCN)NC(=O)CCSCc2cccc(c2)CSC[C@@H](C(N)=O)NC(=O)[C@]2(C)CCCN2C(=O)[C@H](Cc2ccc(O)cc2)NC1=O` [Compound 059] ([Mpa]KG[Trp(5-F)][Trp(5-F)][Pro(trans-4-F)]T(Me)Y[αMeP]C-NH2; linker 1-10 via mXylylene): the pIC50 (in test [1]; at PCSK9) was 6.00 to 7.00 each time.
Consider `COc1ccc(C[C@@H]2NC(=O)[C@H]([C@@H](C)O)NC(=O)[C@@H]3CCCN3C(=O)[C@H](Cc3c[nH]c4ccc(F)cc34)NC(=O)[C@H](Cc3c[nH]c4ccc(F)cc34)NC(=O)[C@@H](C)NC(=O)[C@H](CCCCN)NC(=O)CCSCc3cc(O)cc(c3)CSC[C@@H](C(N)=O)NC(=O)[C@]3(C)CCCN3C2=O)cc1` [Compound 060] ([Mpa]K[dA][Trp(5-F)][Trp(5-F)]PTY(Me)[αMeP]C-NH2; linker 1-10 via X22), for which the pIC50 (in test [1]; at PCSK9) was 4.30 to 4.68 each time.
With `COc1ccc(C[C@@H]2NC(=O)[C@H]([C@@H](C)O)NC(=O)[C@@H]3CCCN3C(=O)[C@H](Cc3c[nH]c4ccc(F)cc34)NC(=O)[C@H](Cc3c[nH]c4ccc(F)cc34)NC(=O)[C@@H](C)NC(=O)[C@H](CCCCN)NC(=O)CCSCc3cc(Br)cc(c3)CSC[C@@H](C(N)=O)NC(=O)[C@]3(C)CCCN3C2=O)cc1` [Compound 061] ([Mpa]K[dA][Trp(5-F)][Trp(5-F)]PTY(Me)[αMeP]C-NH2; linker 1-10 via X15), the pIC50 (in test [1]; on PCSK9) was 4.30 to 4.68 each time.
Consider `COc1ccc(C[C@@H]2NC(=O)[C@H]([C@@H](C)O)NC(=O)[C@@H]3CCCN3C(=O)[C@H](Cc3c[nH]c4ccc(F)cc34)NC(=O)[C@H](Cc3c[nH]c4ccc(F)cc34)NC(=O)[C@@H](C)NC(=O)[C@H](CCCCN)NC(=O)CCSCc3cc(C)cc(c3)CSC[C@@H](C(N)=O)NC(=O)[C@]3(C)CCCN3C2=O)cc1` [Compound 062] ([Mpa]K[dA][Trp(5-F)][Trp(5-F)]PTY(Me)[αMeP]C-NH2; linker 1-10 via TBMB), for which the pIC50 (in test [1]; at PCSK9) was 4.92 to 6.00 each time.
With `COc1ccc(C[C@@H]2NC(=O)[C@H]([C@@H](C)O)NC(=O)[C@@H]3CCCN3C(=O)[C@H](Cc3c[nH]c4ccc(F)cc34)NC(=O)[C@H](Cc3c[nH]c4ccc(F)cc34)NC(=O)[C@@H](C)NC(=O)[C@H](CCCCN)NC(=O)CCSCc3cc(cc(OC)c3)CSC[C@@H](C(N)=O)NC(=O)[C@]3(C)CCCN3C2=O)cc1` [Compound 063] ([Mpa]K[dA][Trp(5-F)][Trp(5-F)]PTY(Me)[αMeP]C-NH2; linker 1-10 via X35), the values for the pIC50 (in test [1]; at PCSK9) were 4.92 to 6.00 and 4.30 to 4.68, respectively.
